{
  "source": "paper PMC9220408",
  "about": "“Enhanced Antibacterial Activity of Dermaseptin through Its Immobilization on Alginate Nanoparticles—Effects of Menthol and Lactic Acid on Its Potentialization” (Antibiotics, 2022)",
  "key": {"[1]": {"system": "CHO (Chinese Hamster Ovary) cells", "conditions": "DRS-B2 at 39.7 µg/mL (10 µM); cited from earlier work"}, "[2]": {"system": "IPEC-1 cells", "experiment": "Cytotoxicity assay (CCK8)", "conditions": "24 h, 37 °C, CCK8, % of non-treated cells", "procedure": "The cytotoxicity assay was performed as previously reported. Briefly, human colon carcinoma (HT29) and porcine intestinal (IPEC-1) cells (Sigma-Aldrich) were cultivated in Dulbecco’s Modified Eagle Medium (DMEM, Gibco, Thermo Fisher, Waltham, MA, USA) in 96-well-tissue culture plates for 48–72 h at 37 °C, in atmosphere containing 5% CO2, until the formation of a continuous confluent cell culture on the bottom of each well. […] The required concentrations were prepared in DMEM without antibiotics and serum and were added to the HT29/IPEC-1 cells in the wells, after washing with the same medium. The treated cells were then incubated for 24 h at 37 °C, in atmosphere containing 5% CO2. To assess the cell viability of the treated HT29/IPEC-1 cells, CCK8 assay (Dojindo Molecular Technologies, Tokyo, Japan) was realized according to the supplier recommendations. An amount of 150 µL of DMEM containing 7.5 µL of CCK-8 reagents were added to each well, and cells were incubated for 2 h. Plates were read at 450 nm in a microplate reader spectrophotometer (Xenius, Safas, Monaco)."}, "[3]": {"system": "E. coli 184", "procedure": "(§1) The minimum inhibitory concentration (MIC) of the aforementioned formulations was determined in triplicate in 96-well microtiter plates using the broth microdilution method. Fresh colonies of E. coli were sub-cultured in Mueller–Hinton broth (Sigma-Aldrich) and were grown at 37 °C overnight on a rotary shaker at 160 rpm. […] The plates were incubated for 24 h at 37 °C, and inhibition of growth was measured at 600 nm with a spectrophotometer ELx808^tm (BioTek, Winoosky, VT, USA).\nThe ability of these new formulations to resist the conditions of the gastrointestinal tract (GIT) environment was determined as previously described. […]\nTo this end, we used pepsin, a digestive enzyme from the stomach, and active at pH 3, trypsin and chymotrypsin, which are synthesized in the pancreas and secreted in the small intestine, active between pH 6 and pH 8."}, "[4]": {"system": "E. coli 184", "type": "cell-based, Escherichia coli", "conditions": "broth microdilution, Mueller-Hinton broth, 24 h, 37 °C, OD 600 nm, triplicate; MIC as lowest concentration of DRS-B2 peptide; colistin-resistant strain (mcr-1)", "procedure": "(§2) The Escherichia coli (E. coli) strains used in this study included E. coli ATCC 8739 and E. coli 184, which is resistant to colistin. […] E. coli strains were grown at 37 °C in Brain Heart Infusion (BHI) medium (Sigma-Aldrich, St. Louis, MA, USA).\nas §1"}, "[5]": {"system": "E. coli ATCC 8739", "type": "cell-based, Escherichia coli", "conditions": "broth microdilution, Mueller-Hinton broth, 24 h, 37 °C, OD 600 nm, triplicate; MIC as lowest concentration of DRS-B2 peptide; colistin-sensitive strain", "procedure": "as §2, §1"}, "[6]": {"experiment": "Size (DLS) and zeta potential", "type": "physicochemical", "conditions": "pH 6.3; Alg NPs 500 µg/mL, DRS-B2 40 µg/mL", "procedure": "The concentration of Alg NPs has been set to 500 µg/mL in order to allow a good dispersion and avoid any aggregation or sedimentation that could interfere with the adsorption. […]"}, "[7]": {"system": "MCF-7 (breast cancer) cells", "conditions": "MCF-7, inhibition of thymidine incorporation; cited from earlier work", "excerpt": "Of note, though many peptides endowed with biological functions, such as inhibitory activities, could be hemolytic, their combination with nanoparticles frequently allows them to discard this adverse trait. Charpentier et al. focused on the cytotoxicity of dermaseptin B3 and B4 on mammalian cells. These authors evaluated dermaseptin B3 and B4 abilities to inhibit thymidine incorporation into transformed human MCF-7 (breast cancer) cells. The results obtained unveiled 50% cytotoxicity when DRS-B3 was used at 27.8 µg/mL (10 µM). However, Galanth et al. reported that wh ..."}},
  "note": "Ends that are not written are not given here.",
  "data": [
    {"substance": "GLWSKIKEVGKEAAKAAAKAAGKAALGAVSEAV-NH2 [DRS-B2, Dermaseptin B2]", "values": [
      {"measurement": "toxic effect on CHO cells (in words)", "setting": "[1]", "value": "not any toxic effect"},
      {"measurement": "percentage of survival of IPEC-1 cell line", "setting": "[2]; DRS-B2 at 30 µg/mL (alone or adsorbed on Alg NPs)", "value": 87, "unit": "%"},
      {"measurement": "percentage of survival of IPEC-1 cell line", "setting": "[2]; DRS-B2 at 125 µg/mL (alone or adsorbed on Alg NPs)", "value": 68, "unit": "%"},
      {"measurement": "MICs of DRS-B2, Treatment with Pepsin", "setting": "[3]; 30 min at pH 3 with pepsin (15 U/mL) and then 2 h at pH 6, 20 mM PBS, 39 °C at 140 rpm", "value": "≥10", "unit": "µg/mL"},
      {"measurement": "MICs of DRS-B2, Treatment with Digestive Enzymes", "setting": "[3]; 30 min at pH 3 with pepsin (15 U/mL) and then 2 h at pH 6 with trypsin (40 U/µL) + chymotrypsin (5 U/mL), 20 mM PBS, 39 °C at 140 rpm", "value": "≥10", "unit": "µg/mL"},
      {"measurement": "MICs of DRS-B2, Treatment with pH Variation Only", "setting": "[3]; incubation 30 min at pH 3 and then 2 h at pH 6, 20 mM PBS, 39 °C at 140 rpm, no enzymes", "value": 10, "unit": "µg/mL"},
      {"measurement": "MICs of DRS-B2, Without Treatment", "setting": "[3]; no physical or enzymatic treatment", "value": 7.5, "unit": "µg/mL"},
      {"measurement": "MIC E. coli 184", "setting": "[4]", "value": 7.5, "unit": "µg/mL"},
      {"measurement": "MIC E. coli ATCC8739", "setting": "[5]", "value": 3.75, "unit": "µg/mL"},
      {"measurement": "Zeta Potential (ζ)", "setting": "[6]", "value": "+23 mV"}
    ]},
    {"substance": "dermaseptin B3 [DRS-B3]", "values": [
      {"measurement": "concentration giving 50% cytotoxicity", "setting": "[7]", "value": 27800, "unit": "ng/mL"}
    ]}
  ]
}
